Experimental data published in patent publication US20070098802A1, “Organic nanoparticles and associated methods” (priority 2005, published 2007).

Assay: Nanoparticle size by light scattering and scanning electron microscopy
Format: physicochemical
Conditions: 0.5% (w/v), 5 mg/ml glyburide in 70% ethanol and 30% chloroform by weight; water added until clouding
Description: A 0.5% (w/v) mixture of 5 mg/ml of glyburide in 70% ethanol and 30% chloroform by weight is prepared. To this mixture, water is added until clouding is observed at which point the emulsion has formed. Light scattering and scanning electron microscopy show the resulting nanoparticle size is on average about 500 nm. A few large nanoparticles may be observed of up to 1 to 3 μm.

resulting nanoparticle size, on average: about 500 nm
Structure (SMILES): COc1ccc(Cl)cc1C(=O)NCCc1ccc(S(=O)(=O)NC(=O)NC2CCCCC2)cc1 [glyburide]
